Results as given in ChEMBL document CHEMBL1126979, “Studies toward structure-activity relationships of taxol: synthesis and cytotoxicity of taxol analogues with C-2 modified phenylisoserine side chains” (Bioorg Med Chem Lett, 1993).

Each compound was assayed on HCT-116 (assay: Compound was evaluated by a cytotoxicity assay in HCT116 human colon carcinoma cell line).
Type: functional, cell-based

| SMILES | IC50 |
| --- | --- |
| CC(=O)O[C@H]1C(=O)[C@@]2(C)C([C@H](OC(=O)c3ccccc3)[C@]3(O)C[C@H](OC(=O)[C@H](F)[C@@H](NC(=O)c4ccccc4)c4ccccc4)C(C)=C1C3(C)C)[C@]1(OC(C)=O)CO[C@@H]1C[C@@H]2O (some centres undefined) | 475 nM |
| CO[C@@H](C(=O)O[C@H]1C[C@@]2(O)[C@@H](OC(=O)c3ccccc3)C3[C@](C)(C(=O)[C@H](OC(C)=O)C(=C1C)C2(C)C)[C@@H](O)C[C@H]1OC[C@@]31OC(C)=O)[C@@H](NC(=O)c1ccccc1)c1ccccc1 (some centres undefined) | 866 nM |
| CC(=O)O[C@H]1C(=O)[C@@]2(C)C([C@H](OC(=O)c3ccccc3)[C@]3(O)C[C@H](OC(=O)C[C@@H](NC(=O)c4ccccc4)c4ccccc4)C(C)=C1C3(C)C)[C@]1(OC(C)=O)CO[C@@H]1C[C@@H]2O (some centres undefined) | 297 nM |
| CC(=O)O[C@H]1C(=O)[C@@]2(C)[C@H]([C@H](OC(=O)c3ccccc3)[C@]3(O)C[C@H](OC(=O)[C@H](O)[C@@H](NC(=O)c4ccccc4)c4ccccc4)C(C)=C1C3(C)C)[C@]1(OC(C)=O)CO[C@@H]1C[C@@H]2O [PACLITAXEL] | 4 nM |
